Data from ChEMBL document CHEMBL1201862, “PubChem BioAssay data set” (2004).
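Five concentrations, 48 hours, 96-well plates. GI50: concentration for 50% inhibition of growth.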 Calls of active or inactive are those of the source. No stated cut-off is given here; in the data, active = GI50 up to about 1.1 µM and inactive = higher.

Tests used:
Assay in all cases: NCI-60 cell line screen, 48 h
[1] = system: T47D
[2] = system: UACC-62
[3] = system: HOP-62
[4] = system: LOX IMVI
[5] = system: SF-539
[6] = system: NCI-H23
[7] = system: SK-MEL-2
[8] = system: MDA-MB-231
[9] = system: KM12
[10] = system: A498
[11] = system: SF-268
[12] = system: SN12C
[13] = system: DU-145
[14] = system: NCI-H460
[15] = system: HCC 2998
[16] = system: UO-31
[17] = system: SK-MEL-5
[18] = system: SNB-75
[19] = system: OVCAR-4

| Compound | GI50 [1] | GI50 [2] | GI50 [3] | GI50 [4] | GI50 [5] | GI50 [6] | GI50 [7] | GI50 [8] | GI50 [9] | GI50 [10] | GI50 [11] | GI50 [12] | GI50 [13] | GI50 [14] | GI50 [15] | GI50 [16] | GI50 [17] | GI50 [18] | GI50 [19] |
| --- | --- | --- | --- | --- | --- | --- | --- | --- | --- | --- | --- | --- | --- | --- | --- | --- | --- | --- | --- |
| O=C(c1cccs1)N1CCc2ccccc2C1 | > 100 µM (inactive) | > 100 µM (inactive) | > 100 µM (inactive) | > 100 µM (inactive) | > 100 µM (inactive) | > 100 µM (inactive) | > 100 µM (inactive) | > 100 µM (inactive) | 74.8 µM (inactive) | > 100 µM (inactive) | > 100 µM (inactive) | > 100 µM (inactive) | > 100 µM (inactive) | > 100 µM (inactive) | > 100 µM (inactive) | > 100 µM (inactive) | 62.4 µM (inactive) | – | – |
| COC(=O)/C=C(\CC(=O)OC)n1nnnc1[C@@H]1C[C@H](COC(c2ccccc2)(c2ccccc2)c2ccccc2)[C@H]2OC(C)(C)O[C@H]21 | 20.8 µM (inactive) | – | > 100 µM (inactive) | > 100 µM (inactive) | > 100 µM (inactive) | – | > 100 µM (inactive) | > 100 µM (inactive) | > 100 µM (inactive) | > 100 µM (inactive) | > 100 µM (inactive) | > 100 µM (inactive) | > 100 µM (inactive) | – | – | > 100 µM (inactive) | 76.7 µM (inactive) | 37.2 µM (inactive) | > 100 µM (inactive) |
| CCc1cc2c(c3c1CCC3=O)CC1(Cc3ccc(C)cc3C1)C2 (configuration not stated) | 14.1 µM (inactive) | 22.2 µM (inactive) | > 100 µM (inactive) | 50.4 µM (inactive) | > 100 µM (inactive) | > 100 µM (inactive) | 31.5 µM (inactive) | 36.6 µM (inactive) | 71.3 µM (inactive) | 27.4 µM (inactive) | – | 43.4 µM (inactive) | – | – | 33.9 µM (inactive) | 0.159 µM (active) | 18.9 µM (inactive) | – | 33.2 µM (inactive) |
| S=C(NCCc1ccccn1)N/N=C/c1ccccn1 | < 0.01 µM (active) | 0.0841 µM (active) | 0.0149 µM (active) | < 0.0373 µM (active) | 0.127 µM (active) | < 0.01 µM (active) | 0.0457 µM (active) | < 0.01 µM (active) | 0.106 µM (active) | – | 0.301 µM (active) | 1.11 µM (active) | 1.48 µM (inactive) | 0.501 µM (active) | 3.06 µM (inactive) | – | 0.182 µM (active) | 9.35 µM (inactive) | 0.519 µM (active) |
| CSC1=N/C(=C\c2ccc(Cl)cc2)C(=O)N1CN1CCCCC1 | – | 65.8 µM (inactive) | 20.4 µM (inactive) | 44.7 µM (inactive) | – | 64.3 µM (inactive) | 67.5 µM (inactive) | 42.1 µM (inactive) | 49.5 µM (inactive) | 17.7 µM (inactive) | 27.4 µM (inactive) | 67.5 µM (inactive) | 89.3 µM (inactive) | – | – | 23.6 µM (inactive) | 32.4 µM (inactive) | 46.2 µM (inactive) | – |
| OC(c1cccs1)c1cc2ccccc2s1 (configuration not stated) | > 10 µM (inactive) | > 10 µM (inactive) | > 10 µM (inactive) | > 10 µM (inactive) | > 10 µM (inactive) | > 10 µM (inactive) | > 10 µM (inactive) | > 10 µM (inactive) | > 10 µM (inactive) | – | > 10 µM (inactive) | > 10 µM (inactive) | > 10 µM (inactive) | > 10 µM (inactive) | > 10 µM (inactive) | > 10 µM (inactive) | > 10 µM (inactive) | > 10 µM (inactive) | > 10 µM (inactive) |
| ClCCNCCNCCCl.ClCCNCCNCCCl.[O-][Cl+3]([O-])([O-])O | – | 26.9 µM (inactive) | > 100 µM (inactive) | 20 µM (inactive) | 26.2 µM (inactive) | 27.9 µM (inactive) | 21.4 µM (inactive) | – | > 100 µM (inactive) | 57.1 µM (inactive) | 25.5 µM (inactive) | 61.2 µM (inactive) | – | 22.3 µM (inactive) | > 100 µM (inactive) | 26.8 µM (inactive) | 23 µM (inactive) | 19 µM (inactive) | 22.3 µM (inactive) |
